The numbers were not newly measured in PMC11435065, “Inhibition of P-Glycoprotein Asymmetrically Alters the In Vivo Exposure Profile of SGC003F: A Novel Guanylate Cyclase Stimulator” (Pharmaceuticals, 2024), which cites them from elsewhere.

Details of the data set: method as in PMID 24398461. The note with it: rats, one hour after administration, with 1.0 mg/kg tariquidar; cited from earlier work.

Take `CN(C)C(=O)C(CCN1CCC(O)(c2ccc(Cl)cc2)CC1)(c1ccccc1)c1ccccc1` [loperamide]: the “Increase of loperamide levels in the brain” value is 2.3 fold.
